Experiments:
Type in all cases: cell-based, mouse
[1] = system: SSEA1; assay: Immunofluorescence staining, SSEA1 in ES cells; conditions: for SSEA1 expression level: ES cells, 72 hours, control group = 100%
Excerpt: (§1) Nanog and SSEA1 are also marker proteins of stem cells, and their expression levels could be measured by immunofluorescence staining to further confirm whether BP can effectively maintain the self-renewal and pluripotency of stem cells.
(§2) An experimental group medium (BP5, BP10, BP20 or BP40), a LIF-containing medium (without BP), and a control group medium (without BP) were used respectively in a 6-well culture dish which comprises a slide in each well to culture ES cells with an initial density of 1×10^4 per well for 72 hours. The medium was removed and the cells were washed with PBS. Next, PBS was removed, and then 4% paraformaldehyde was added to perform the fixation at room temperature for 10 minutes. Next, paraformaldehyde was removed, and then slides were washed with 0.1% Tween-20/1X PBS three times for 10 minutes each time. The 0.3% Tween-20/1X PBS was added and held at room temperature for 30 minutes to penetrate the cell membrane to benefit the dye entry. After the slides were washed three times with 0.1% Tween-20, 5% FBS/1×PBS was added to perform a blocking reaction at room temperature for 2 hours, and then reacting with the primary antibody [anti-Nanog (Novus) or anti-SSEA1 (Millipore)] at a dilution of 1:100 at room temperature overnight. Slides were then washed 5 times with 0.1% Tween-20, then reacting with the secondary antibody [FITC-conjugated anti-mouse IgG or TRITC-conjugated anti-rabbit IgG (Sigma-Aldrich)] at a dilution of 1:500. After washed with 0.1% Tween-20 for 10 minutes, slides were mounted with the DAPI-containing UltraCruz™ Mounting medium and observed using an inverted fluorescent microscope.

[2] = system: Nanog; assay: Immunofluorescence staining, Nanog in ES cells; conditions: for Nanog expression level: ES cells, 72 hours, control group = 100%
Excerpt: as §1, §2

[3] = system: Stat3; assay: Western blot assay, Stat3 protein in ES cells; conditions: for Stat3 Protein expression level: ES cells, control group = 100%
Excerpt: According to the known research at present, Jak2 and Stat3 proteins could be phosphorylated to form the active forms, and the Jak2-Stat3 signaling pathway will be activated when Jak2 and Stat3 were phosphorylated.
An experimental group medium (BP5 or BP10), a LIF-containing medium (without BP), and a control group medium (without BP) were used respectively to culture ES cells with an initial density of 1×10^4 per well in a 6-well culture dish. The medium was removed until the cells growth to be about 70 to 80% confluence. The proteins were extracted to conduct the Western blot assay by using rabbit anti-Jak2 antibody (Cell Signaling Technology), mouse anti-phospho-Jak2 antibody (Cell Signaling Technology), rabbit anti-Stat3 antibody (BD) and rabbit anti-phospho-Stat3 antibody (Cell Signaling Technology), to determine whether BP would affect the protein expression levels of the genes in the Jak-Stat3 signaling pathway.

[4] = system: Stat3; assay: Real-time PCR, Stat3 mRNA in ES cells; conditions: for Stat3 Gene expression level: ES cells, control group = 100%
Protocol: (§3) An experimental group medium (BP5, BP10, BP20 or BP40) and a control group medium (without BP) were added respectively to perform the following steps. ES cells were cultured with an initial density of 1×10^4 per well in a 6-well culture dish. The medium was removed until the cells growth to be about 70 to 80% confluence, and then 1 ml TRIzol (Invitrogen) was added into each well. The cells were incubated for 5 minutes, and then was scraped by a spatula and placed into a 1.5 ml microtube to be lysed adequately. Chloroform (0.2 ml) was added into the microtubes. The mixture was shaken up and down for 15 seconds, and then incubated at room temperature for 2 to 3 minutes. Thereafter, the mixture was centrifuged at 12000 rpm at 4° C. for 15 minutes, and the supernatant was removed into another 1.5 ml microtube and isopropanol (0.5 ml) was added into the microtube with well mixing. The mixture was incubated at room temperature for 10 minutes and then centrifuged at 12000 rpm at 4° C. for 10 minutes. The supernatant was then removed. One ml of 70% ethanol containing DEPC.H2O was used to wash the remaining sediment. The sediment was centrifuged at 7500 rpm at 4° C. for 5 minutes. The supernatant was removed. The sediment was dried by vacuum suction. The dried samples were dissolved in about 0.01 to 0.02 ml of DEPC.H2O to obtain the experimental group RNA and control group RNA. Both groups were stored at −80° C.
(§4) The OD value of RNA samples in both groups obtained from the above Experiment I were measured at a wavelength of 260 nm (RNA: OD260=1 for a 40 μg/mL solution). Each RNA sample (2 μl) was added with RNA-free water until the volume of the sample reached 10 μl. Two μl oligo (dT) (100 μg/ml) was added into each sample, and the samples were incubated at 65° C. for 5 minutes. Then, the samples were immediately placed on ice and spun down. Next, 6.5 μl of a reaction solution [4 μl of 5× buffer+1 μl of 0.1 M DTT+1 μl of RNase out+0.5 μl of SSIII (Invitrogen)] was added into each of the samples, and the samples were incubated at 50° C. for about 30 to 60 minutes and at 75° C. for 15 minutes to obtain the experimental group cDNA and control group cDNA. Both groups were stored at −80° C.
(§5) This experiment was used to detect the expression levels of ES cell-related genes, i.e., Oct4 and Sox2, etc. First, 4 μl of the experimental group cDNA or control group cDNA was added into each well of a 96-well micro-reaction plate, and mixed with 6 μl of a reaction solution [0.5 μl of 6 μM forward primer+0.5 μl of 6 μM reverse primer+5 μl of SYBR Green PCR Master mix (Roche)], wherein the SYBR Green PCR Master mix included the reagents needed for Q-PCR, such as dNTPs, MgCl, Taq DNA polymerase and 2×SYBR® Green I solution. […] The cycle threshold (CT) values were measured. […]

[5] = system: IL5; assay: Real-time PCR, cytokine gene IL5 in ES cells; conditions: for IL5 mRNA expression level: ES cells, control group = 100%
Protocol: as §3, §4, §5

[6] = BP10 medium (about 10 μg BP/ml)
[7] = BP20 medium (about 20 μg BP/ml)
[8] = BP40 medium (about 40 μg BP/ml)
[9] = BP-containing ES cell medium vs control group (without BP), result in words
[10] = LIF-containing medium (LIF 4 ng/ml, without BP)

CCCC=C1OC(=O)c2ccccc21 [BP, n-butylidenephthalide]
SSEA1 expression level ([1]; BP5 medium (about 5 μg BP/ml)): 76.27% | SSEA1 expression level [1, 6]: 202.82% | SSEA1 expression level [1, 7]: 172.12% | SSEA1 expression level [1, 8]: 145.71% | expression level of SSEA1 [1, 9]: higher | Nanog expression level ([2]; BP5 medium (about 5 μg BP/ml)): 113.22% | Nanog expression level [2, 6]: 183.28% | Nanog expression level [2, 7]: 213.8% | Nanog expression level [2, 8]: 212.83% | expression level of Nanog [2, 9]: higher | Stat3 Protein expression level ([3]; BP5 medium (about 5 μg BP/ml)): 139% | Stat3 Protein expression level [3, 6]: 165% | total protein expression and phosphorylated protein expression level of Stat3 ([3]; ES cell medium containing BP, result in words): increased significantly | Stat3 Gene expression level ([4]; BP5 medium (about 5 μg BP/ml)): 169% | Stat3 Gene expression level [4, 6]: 151% | mRNA expression level of Stat3 ([4]; BP-containing ES cell medium (BP5 or BP10), result in words): significantly up-regulated | IL5 mRNA expression level ([5]; BP5 medium (about 5 μg BP/ml)): 65% | IL5 mRNA expression level [5, 6]: 175% | mRNA expression level of IL-5 ([5]; BP-containing ES cell medium, result in words): significantly up-regulated

LIF: multifunctional cell factor used to maintain pluripotency of stem cells; LIF-containing medium (4 ng/ml, without BP) as comparison
SSEA1 expression level [1, 10]: 242.01% | Nanog expression level [2, 10]: 204.46% | Stat3 Protein expression level [3, 10]: 140% | Stat3 Gene expression level [4, 10]: 194% | IL5 mRNA expression level ([5]; LIF-containing medium (LIF 4 ng/ml)): 35%

— patent publication US20150056702A1, “METHOD AND KIT FOR CULTURING STEM CELLS” (China Medical University, priority 2013, published 2015)
